Values quoted from earlier work, collected in patent US20240041743A1, “SYNERGISTIC TETRAPEPTIDE COMBINATION” (BASF CORPORATION, priority 2017, published 2024).
Residues, ends and D or L forms follow the SMILES beside them.

Key:
skin firmness = settings: 3% Dermican
[1] = system: skin texture, skin smoothing, firmness and elasticity; settings: 3% Syniorage

| Compound | bi-daily application needed to achieve an improvement of skin firmness (skin firmness) | improvement on skin firmness after the first 2 months of application (skin firmness; bi-daily application, first 2 months) | bi-daily application needed to improve skin texture, skin smoothing, and biomechanical properties of firmness and elasticity [1] |
| --- | --- | --- | --- |
| CC(=O)N[C@@H](CCC(N)=O)C(=O)N[C@@H](CC(=O)O)C(=O)N[C@H](C(=O)N[C@@H](Cc1c[nH]cn1)C(=O)O)C(C)C [Dermican™, N-Acetyl-Glutaminyl-Aspartyl-Valyl-Histidine] (Ac-QDVH-OH) | 4 months | no improvement was observed | – |
| CC(=O)N1CCC[C@H]1C(=O)N1CCC[C@H]1C(=O)N[C@@H](Cc1ccc(O)cc1)C(=O)N[C@@H](CC(C)C)C(=O)O [Syniorage™, N-Acetyl-Prolyl-Prolyl-Tyrosyl-Leucine] (Ac-PPYL-OH) | – | – | 2 months |
